Each structure is given as a SMILES string.

Common to all, as to format: cell-based
For one assay, the target named is T1, human CFTR mutant G970R (Homo sapiens, UniProt P13569, G970R).
T1 construct: expressed in transfected cells; host or cells: Fisher rat thyroid (FRT) FlpIn cells, pcDNA5/FRT
Description: FRT cell Ussing chamber chloride transport assay. The conditions noted are these: FRT cells expressing G970R CFTR. The text has this:
(§1) DNA cloning: Wild-type CFTR coding region was inserted into pcDNA5/FRT (Invitrogen, San Diego, Calif.) between EcoRV and ApaI.
(§2) Single CFTR gene mutations were introduced into the wild-type CFTR coding sequence by using QuickChange XL site-directed mutagenesis kit (Stratagene, Cambridge, UK). The CFTR coding region as well as its promoter sequence and 3′ untranslated sequence was fully sequenced to confirm the mutagenesis reaction.
(§3) The CFTR gene was stably expressed in Fisher rat thyroid (FRT) cells through FlpIn system. The FRT-FlpIn host cell line was generated by stably transfecting FRT cells with pFRT/lacZeo. The single integration of a FRT site was confirmed by Southern blot. After the mutant CFTR DNA was transfected into the FRT-FlpIn host cell line, the cells were incubate at 37° C. in Coon's modified Ham's F12 containing 10% FBS, 1% Pen/Strep, and 36 ml of Na− Bicarbonate for up to 8 passages under hygromycin selection (200 ug/ml).
(§4) All cells were grown on Costar® Snapwell™ cell culture inserts at maintained at 37° C. prior to recording. The cell culture inserts were mounted into an Ussing chamber (VCC MC8; Physiologic Instruments, Inc., San Diego, Calif.) to record ISC in the voltage-clamp mode (Vhold=0 mV). For FRT cells, the basolateral membrane was permeabilized with 360 μg/ml Nystatin and a basolateral to apical Cl− gradient was established. The basolateral bath solution contained (in mM); 135 NaCl, 1.2 CaCl2, 1.2 MgCl2, 2.4 K2HPO4, 0.6 KHPO4, 10 N-2-hydroxyethylpiperazine-N′-2-ethanesulfonic acid (HEPES), and 10 dextrose (titrated to pH 7.4 with NaOH). The apical NaCl was replaced by equimolar Na+ gluconate (titrated to pH 7.4 with NaOH). For HBE cells, the ISC was measured in the presence of a basolateral to apical Cl− gradient. The normal Cl− solution contained (in mM) 145 NaCl, 3.3 K2HPO4, 1.2 MgCl2, 1.2 CaCl2, 10 Glucose, 10 HEPES (pH adjusted to 7.35 with NaOH) and the low Cl− solution contained (in mM) 145 NaGluconate, 1.2 MgCl2, 1.2 CaCl2, 10 glucose, 10 HEPES (pH adjusted to 7.35 with NaOH). All recordings were digitally acquired using a Acquire and Analyze software (version 2; Physiologic Instruments, Inc. San Diego, Calif.).
(§5) The 10 μM forskolin stimulated response in FRT cell expressing different mutant CFTR forms or in HBE cells isolated from CF patients was normalized to the 10 μM forskolin-stimulated response in FRT cells expressing wild-type CFTR or in HBE isolated from non-CF individuals and expressed as % wild-type CFTR. In HBE, amiloride was added prior to forskolin application to block the epithelial Na+ channel.

The target of another assay is T2, human CFTR mutant P67L (Homo sapiens, UniProt P13569, P67L).
T2 construct: expressed in transfected cells; host or cells: Fisher rat thyroid (FRT) FlpIn cells, pcDNA5/FRT
T2 sequence (P13569 whole entry P67L): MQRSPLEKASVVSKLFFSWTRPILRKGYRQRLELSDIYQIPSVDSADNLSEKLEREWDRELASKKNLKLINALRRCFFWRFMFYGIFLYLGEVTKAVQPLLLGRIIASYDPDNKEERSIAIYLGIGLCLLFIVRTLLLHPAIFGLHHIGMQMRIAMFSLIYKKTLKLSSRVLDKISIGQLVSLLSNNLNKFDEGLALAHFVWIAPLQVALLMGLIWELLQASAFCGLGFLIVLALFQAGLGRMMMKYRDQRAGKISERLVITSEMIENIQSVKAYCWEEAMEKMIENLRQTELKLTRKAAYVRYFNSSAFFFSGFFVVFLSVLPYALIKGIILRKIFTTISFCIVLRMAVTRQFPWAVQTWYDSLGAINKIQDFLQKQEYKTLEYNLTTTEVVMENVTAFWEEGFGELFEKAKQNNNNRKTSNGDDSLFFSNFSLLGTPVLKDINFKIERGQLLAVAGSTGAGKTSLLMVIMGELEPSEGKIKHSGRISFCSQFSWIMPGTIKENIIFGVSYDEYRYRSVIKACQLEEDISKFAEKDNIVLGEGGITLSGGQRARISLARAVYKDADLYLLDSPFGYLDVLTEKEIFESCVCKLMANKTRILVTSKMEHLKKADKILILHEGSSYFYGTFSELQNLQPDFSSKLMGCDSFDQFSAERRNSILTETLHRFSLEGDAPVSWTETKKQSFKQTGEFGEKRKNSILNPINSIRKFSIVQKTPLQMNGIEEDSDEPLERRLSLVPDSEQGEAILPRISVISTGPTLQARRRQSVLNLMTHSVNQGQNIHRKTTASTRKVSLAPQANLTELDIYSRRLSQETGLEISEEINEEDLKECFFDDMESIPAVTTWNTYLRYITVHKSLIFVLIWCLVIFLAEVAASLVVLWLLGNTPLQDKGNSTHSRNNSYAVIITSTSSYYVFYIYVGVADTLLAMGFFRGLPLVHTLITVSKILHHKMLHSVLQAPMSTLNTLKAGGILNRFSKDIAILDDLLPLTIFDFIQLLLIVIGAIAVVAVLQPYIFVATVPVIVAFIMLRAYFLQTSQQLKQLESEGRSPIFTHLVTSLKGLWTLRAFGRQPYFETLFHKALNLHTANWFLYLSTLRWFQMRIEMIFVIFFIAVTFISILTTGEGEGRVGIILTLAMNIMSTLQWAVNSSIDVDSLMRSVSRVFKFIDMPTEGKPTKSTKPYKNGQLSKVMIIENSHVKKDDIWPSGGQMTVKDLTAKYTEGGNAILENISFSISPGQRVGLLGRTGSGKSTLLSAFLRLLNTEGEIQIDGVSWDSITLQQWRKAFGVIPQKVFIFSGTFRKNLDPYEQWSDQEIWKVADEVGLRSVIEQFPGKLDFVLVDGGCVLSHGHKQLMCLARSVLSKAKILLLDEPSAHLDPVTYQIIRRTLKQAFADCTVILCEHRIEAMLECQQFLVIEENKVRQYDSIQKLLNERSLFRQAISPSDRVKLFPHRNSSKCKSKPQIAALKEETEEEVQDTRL
Description: FRT cell Ussing chamber chloride transport assay. The conditions noted are these: FRT cells expressing P67L CFTR.
Source text: as §1, §2, §3, §4, §5

A further assay deals with T3, human CFTR mutant D1152H (Homo sapiens, UniProt P13569, D1152H).
T3 construct: expressed in transfected cells
T3 sequence (P13569 whole entry D1152H): as the sequence (P13569 whole entry P67L) above, with L67P, D1152H counted along it
Description: FRT cell Ussing chamber chloride transport assay. The conditions noted are these: FRT cells expressing D1152H CFTR.
Source text: as §1, §2, §3, §4, §5

Another assay addresses T4, human CFTR mutant D110E (Homo sapiens, UniProt P13569, D110E).
T4 construct: expressed in transfected cells; host or cells: Fisher rat thyroid (FRT) FlpIn cells, pcDNA5/FRT
Description: FRT cell Ussing chamber chloride transport assay. The settings on record: FRT cells expressing D110E CFTR.
Source text: as §1, §2, §3, §4, §5

In a further assay the target is T5, human CFTR mutant S945L (Homo sapiens, UniProt P13569, S945L).
T5 construct: expressed in transfected cells; host or cells: Fisher rat thyroid (FRT) FlpIn cells, pcDNA5/FRT
T5 sequence (P13569 whole entry S945L): as the sequence (P13569 whole entry P67L) above, with L67P, S945L counted along it
Description: FRT cell Ussing chamber chloride transport assay. The conditions noted are these: FRT cells expressing S945L CFTR.
Source text: as §1, §2, §3, §4, §5

For another assay, the target named is T6, human CFTR mutant R1070W (Homo sapiens, UniProt P13569, R1070W).
T6 construct: expressed in transfected cells; host or cells: Fisher rat thyroid (FRT) FlpIn cells, pcDNA5/FRT
T6 sequence (P13569 whole entry R1070W): as the sequence (P13569 whole entry P67L) above, with L67P, R1070W counted along it
Description: FRT cell Ussing chamber chloride transport assay. The conditions noted are these: FRT cells expressing R1070W CFTR.
Source text: as §1, §2, §3, §4, §5

In the next assay the target is T7, human CFTR mutant E56K (Homo sapiens, UniProt P13569, E56K).
T7 construct: expressed in transfected cells; host or cells: Fisher rat thyroid (FRT) FlpIn cells, pcDNA5/FRT
T7 sequence (P13569 whole entry E56K): as the sequence (P13569 whole entry P67L) above, with E56K, L67P counted along it
Nature of the assay: FRT cell Ussing chamber chloride transport assay. The conditions noted are these: FRT cells expressing E56K CFTR.
Source text: as §1, §2, §3, §4, §5

A further assay has as its target T8, human CFTR mutant D110H (Homo sapiens, UniProt P13569, D110H).
T8 construct: expressed in transfected cells; host or cells: Fisher rat thyroid (FRT) FlpIn cells, pcDNA5/FRT
Description: FRT cell Ussing chamber chloride transport assay. The conditions noted are these: FRT cells expressing D110H CFTR.
Source text: as §1, §2, §3, §4, §5

A further assay has as its target T9, human CFTR mutant D579G (Homo sapiens, UniProt P13569, D579G).
T9 construct: expressed in transfected cells; host or cells: Fisher rat thyroid (FRT) FlpIn cells, pcDNA5/FRT
Nature of the assay: FRT cell Ussing chamber chloride transport assay. The settings on record: FRT cells expressing D579G CFTR.
Source text: as §1, §2, §3, §4, §5

The target in a further assay is T10, human CFTR mutant S549N (Homo sapiens, UniProt P13569, S549N).
T10 construct: expressed in transfected cells; host or cells: Fisher rat thyroid (FRT) FlpIn cells, pcDNA5/FRT
T10 sequence (P13569 whole entry S549N): as the sequence (P13569 whole entry P67L) above, with L67P, S549N counted along it
Description: FRT cell Ussing chamber chloride transport assay. The conditions noted are these: FRT cells expressing S549N CFTR.
Source text: as §1, §2, §3, §4, §5

The target in the next assay is T11, human CFTR mutant R352Q (Homo sapiens, UniProt P13569, R352Q).
T11 construct: expressed in transfected cells; host or cells: Fisher rat thyroid (FRT) FlpIn cells, pcDNA5/FRT
T11 sequence (P13569 whole entry R352Q): as the sequence (P13569 whole entry P67L) above, with L67P, R352Q counted along it
Description: FRT cell Ussing chamber chloride transport assay. The settings on record: FRT cells expressing R352Q CFTR.
Source text: as §1, §2, §3, §4, §5

In another assay the target is T12, human CFTR mutant A455E (Homo sapiens, UniProt P13569, A455E).
T12 construct: expressed in transfected cells; host or cells: Fisher rat thyroid (FRT) FlpIn cells, pcDNA5/FRT
T12 sequence (P13569 whole entry A455E): as the sequence (P13569 whole entry P67L) above, with L67P, A455E counted along it
Nature of the assay: FRT cell Ussing chamber chloride transport assay. The settings on record: FRT cells expressing A455E CFTR.
Source text: as §1, §2, §3, §4, §5

The target of another assay is T13, ΔF508-CFTR (Homo sapiens, UniProt P13569, DEL508-508).
T13 construct: expressed in transfected cells; host or cells: NIH3T3 mouse fibroblasts
T13 sequence (P13569 with tags, fused parts or gaps DEL508-508): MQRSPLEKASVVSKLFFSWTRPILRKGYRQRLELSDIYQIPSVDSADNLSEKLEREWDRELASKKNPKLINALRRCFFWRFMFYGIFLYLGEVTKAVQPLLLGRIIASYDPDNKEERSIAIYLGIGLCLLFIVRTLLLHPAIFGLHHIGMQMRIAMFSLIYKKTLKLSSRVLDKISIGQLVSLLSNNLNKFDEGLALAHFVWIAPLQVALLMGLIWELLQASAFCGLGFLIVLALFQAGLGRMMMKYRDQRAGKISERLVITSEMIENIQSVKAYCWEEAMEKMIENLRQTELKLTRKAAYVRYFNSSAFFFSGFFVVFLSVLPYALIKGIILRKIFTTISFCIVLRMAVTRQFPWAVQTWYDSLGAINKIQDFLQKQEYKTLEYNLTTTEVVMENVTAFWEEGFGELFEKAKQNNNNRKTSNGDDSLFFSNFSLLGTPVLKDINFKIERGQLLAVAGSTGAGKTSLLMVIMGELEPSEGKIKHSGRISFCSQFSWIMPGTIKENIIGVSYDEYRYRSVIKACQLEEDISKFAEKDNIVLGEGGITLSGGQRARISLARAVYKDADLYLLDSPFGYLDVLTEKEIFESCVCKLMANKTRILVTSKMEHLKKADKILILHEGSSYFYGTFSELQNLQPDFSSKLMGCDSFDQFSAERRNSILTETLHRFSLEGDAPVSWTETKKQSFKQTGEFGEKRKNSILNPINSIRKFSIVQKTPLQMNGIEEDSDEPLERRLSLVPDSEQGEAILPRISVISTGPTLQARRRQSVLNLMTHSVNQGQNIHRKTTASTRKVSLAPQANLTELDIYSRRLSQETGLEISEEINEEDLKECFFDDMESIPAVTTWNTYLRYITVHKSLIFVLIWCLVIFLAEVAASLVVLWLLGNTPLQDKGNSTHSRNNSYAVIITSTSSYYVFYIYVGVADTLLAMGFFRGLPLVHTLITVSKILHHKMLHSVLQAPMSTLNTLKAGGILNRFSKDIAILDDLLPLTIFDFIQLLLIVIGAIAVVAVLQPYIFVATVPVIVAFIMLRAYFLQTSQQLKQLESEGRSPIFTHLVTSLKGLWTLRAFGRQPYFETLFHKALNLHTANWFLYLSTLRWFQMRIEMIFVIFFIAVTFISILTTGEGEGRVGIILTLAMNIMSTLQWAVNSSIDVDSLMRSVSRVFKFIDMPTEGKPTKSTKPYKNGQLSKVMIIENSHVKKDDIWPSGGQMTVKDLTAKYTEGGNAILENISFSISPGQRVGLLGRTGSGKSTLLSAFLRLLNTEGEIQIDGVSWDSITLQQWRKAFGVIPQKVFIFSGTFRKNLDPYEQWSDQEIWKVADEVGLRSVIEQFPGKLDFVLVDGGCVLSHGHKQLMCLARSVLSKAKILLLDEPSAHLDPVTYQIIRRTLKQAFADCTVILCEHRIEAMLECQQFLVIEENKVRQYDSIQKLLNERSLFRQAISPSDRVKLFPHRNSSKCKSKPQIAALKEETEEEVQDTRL
Nature of the assay: Membrane potential optical assay for ΔF508-CFTR potentiation (FLIPR III). The settings on record: relative efficacy; ΔF508-CFTR NIH 3T3 cells. The text has this: The assay utilizes fluorescent voltage sensing dyes to measure changes in membrane potential using a fluorescent plate reader (e.g., FLIPR III, Molecular Devices, Inc.) as a readout for increase in functional ΔF508-CFTR in NIH 3T3 cells. The driving force for the response is the creation of a chloride ion gradient in conjunction with channel activation by a single liquid addition step after the cells have previously been treated with compounds and subsequently loaded with a voltage sensing dye. To identify potentiators of ΔF508-CFTR, a double-addition HTS assay format was developed. This HTS assay utilizes fluorescent voltage sensing dyes to measure changes in membrane potential on the FLIPR III as a measurement for increase in gating (conductance) of ΔF508 CFTR in temperature-corrected ΔF508 CFTR NIH 3T3 cells. The driving force for the response is a Cl^− ion gradient in conjunction with channel activation with forskolin in a single liquid addition step using a fluorescent plate reader such as FLIPR III after the cells have previously been treated with potentiator compounds (or DMSO vehicle control) and subsequently loaded with a redistribution dye. Bath Solution #1: (in mM) NaCl 160, KCl 4.5, CaCl2 2, MgCl2 1, HEPES10, pH 7.4 with NaOH. Chloride-free bath solution: Chloride salts in Bath Solution #1 (above) are substituted with gluconate salts. […]

T4 sequence (P13569 whole entry D110E): as the sequence (P13569 whole entry P67L) above, with L67P, D110E counted along it
T8 sequence (P13569 whole entry D110H): as the sequence (P13569 whole entry P67L) above, with L67P, D110H counted along it
T9 sequence (P13569 whole entry D579G): as the sequence (P13569 whole entry P67L) above, with L67P, D579G counted along it
T1 sequence (P13569 whole entry G970R): as the sequence (P13569 whole entry P67L) above, with L67P, G970R counted along it

For the compound `CC(C)(C)c1cc(C(C)(C)C)c(NC(=O)c2c[nH]c3ccccc3c2=O)cc1O` [Compound 1, N-[2,4-bis(1,1-dimethylethyl)-5-hydroxyphenyl]-1,4-dihydro-4-oxoquinoline-3-carboxamide], the “increase in chloride transport, relative to baseline chloride transport” value on human CFTR mutant G970R is listed as “greater than 10 fold”; on human CFTR mutant P67L, “greater than or equal to 10%”; on human CFTR mutant D1152H, “greater than or equal to 10%”; on human CFTR mutant D110E, “greater than or equal to 10%”; at human CFTR mutant S945L, “greater than or equal to 10%”; at human CFTR mutant R1070W it was “greater than or equal to 10%”. Besides, the “increase in chloride transport, relative to baseline chloride transport” value on human CFTR mutant E56K is recorded as “greater than or equal to 10%”; at human CFTR mutant D110H it was “greater than or equal to 10%”; at human CFTR mutant D579G, “greater than or equal to 10%”; on human CFTR mutant S549N, “greater than 10 fold”; at human CFTR mutant R352Q, “greater than or equal to 10%”; at human CFTR mutant A455E it was “greater than or equal to 10%”. At ΔF508-CFTR, the “% Activity” value was “++ (“++” means between 25% to 100%)”.

These data come from patent US20130331412A9, “Pharmaceutical Compositions and Administrations Thereof” (VERTEX PHARMACEUTICALS INCORPORATED, priority 2010, published 2013).
